# According to US11572590B2, “Methods for evaluating tumor cell spheroids using 3D microfluidic cell culture device” (Dana-Farber Cancer Institute, Inc., priority 2017, dated 2023):
# Read-outs that look alike come from different tables or passages of the source.
# Tests used:
# Test in all cases: SelectScreen Kinase Profiling, single point inhibition and IC50 for off-target kinases
# Type in all cases: biochemical
# off-target kinases [1] = target: off-target kinases (Homo sapiens, UniProt P78362); conditions: SRPK2; Cmpd1 1000 μM; ATP Km app; ZLYTE
# off-target kinases [2] = target: off-target kinases (Homo sapiens, UniProt Q7KZI7); conditions: MARK2, ATP Km app, ZLYTE
# off-target kinases [3] = target: T1, off-target kinases (Homo sapiens, UniProt P15735); conditions: PHKG2, ATP Km app, ZLYTE
# T1 sequence (P15735 1-406): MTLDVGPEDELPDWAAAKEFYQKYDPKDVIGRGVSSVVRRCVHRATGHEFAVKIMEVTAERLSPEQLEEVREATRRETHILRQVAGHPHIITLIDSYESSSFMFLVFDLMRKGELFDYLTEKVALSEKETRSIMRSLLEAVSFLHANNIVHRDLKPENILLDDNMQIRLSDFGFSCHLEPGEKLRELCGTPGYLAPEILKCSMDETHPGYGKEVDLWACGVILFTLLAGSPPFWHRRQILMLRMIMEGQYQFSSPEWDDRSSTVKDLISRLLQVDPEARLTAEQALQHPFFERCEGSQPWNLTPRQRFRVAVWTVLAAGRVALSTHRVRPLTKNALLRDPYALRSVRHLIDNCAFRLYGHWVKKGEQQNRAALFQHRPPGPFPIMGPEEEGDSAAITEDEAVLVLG
# off-target kinases [4] = target: off-target kinases (Homo sapiens, UniProt P14616); conditions: INSRR (IRR), ZLYTE, ATP Km app
# off-target kinases [5] = target: off-target kinases (Homo sapiens, UniProt P07949, M918T); conditions: RET M918T, mutant y, LanthaScreen Binding
# off-target kinases [6] = target: T2, off-target kinases (Homo sapiens, UniProt P36896); conditions: ACVR1B (ALK4); Cmpd1 1000 μM; ATP Km app; ZLYTE
# T2 sequence (P36896 24-505): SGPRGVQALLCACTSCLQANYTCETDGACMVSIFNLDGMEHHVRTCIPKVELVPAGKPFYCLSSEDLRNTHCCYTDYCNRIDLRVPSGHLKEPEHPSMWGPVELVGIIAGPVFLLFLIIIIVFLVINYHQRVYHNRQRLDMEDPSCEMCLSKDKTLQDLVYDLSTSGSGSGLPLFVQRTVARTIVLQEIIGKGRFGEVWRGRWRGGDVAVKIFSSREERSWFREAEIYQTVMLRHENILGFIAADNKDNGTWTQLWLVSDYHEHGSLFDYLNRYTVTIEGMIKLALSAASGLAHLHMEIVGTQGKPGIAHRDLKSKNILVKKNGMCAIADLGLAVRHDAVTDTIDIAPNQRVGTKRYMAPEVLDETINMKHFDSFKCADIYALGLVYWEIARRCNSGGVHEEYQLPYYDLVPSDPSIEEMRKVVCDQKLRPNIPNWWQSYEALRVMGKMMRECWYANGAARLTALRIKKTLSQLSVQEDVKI
# off-target kinases [7] = target: off-target kinases (Homo sapiens, UniProt P19784); conditions: CSNK2A2 (CK2 alpha 2), ZLYTE, ATP Km app
# off-target kinases [8] = target: off-target kinases (Homo sapiens, UniProt P08581, D1228H); conditions: MET D1228H, LanthaScreen Binding
# Chain of off-target kinases (Homo sapiens, UniProt P08581, D1228H) (P08581 25-1390 D1228H): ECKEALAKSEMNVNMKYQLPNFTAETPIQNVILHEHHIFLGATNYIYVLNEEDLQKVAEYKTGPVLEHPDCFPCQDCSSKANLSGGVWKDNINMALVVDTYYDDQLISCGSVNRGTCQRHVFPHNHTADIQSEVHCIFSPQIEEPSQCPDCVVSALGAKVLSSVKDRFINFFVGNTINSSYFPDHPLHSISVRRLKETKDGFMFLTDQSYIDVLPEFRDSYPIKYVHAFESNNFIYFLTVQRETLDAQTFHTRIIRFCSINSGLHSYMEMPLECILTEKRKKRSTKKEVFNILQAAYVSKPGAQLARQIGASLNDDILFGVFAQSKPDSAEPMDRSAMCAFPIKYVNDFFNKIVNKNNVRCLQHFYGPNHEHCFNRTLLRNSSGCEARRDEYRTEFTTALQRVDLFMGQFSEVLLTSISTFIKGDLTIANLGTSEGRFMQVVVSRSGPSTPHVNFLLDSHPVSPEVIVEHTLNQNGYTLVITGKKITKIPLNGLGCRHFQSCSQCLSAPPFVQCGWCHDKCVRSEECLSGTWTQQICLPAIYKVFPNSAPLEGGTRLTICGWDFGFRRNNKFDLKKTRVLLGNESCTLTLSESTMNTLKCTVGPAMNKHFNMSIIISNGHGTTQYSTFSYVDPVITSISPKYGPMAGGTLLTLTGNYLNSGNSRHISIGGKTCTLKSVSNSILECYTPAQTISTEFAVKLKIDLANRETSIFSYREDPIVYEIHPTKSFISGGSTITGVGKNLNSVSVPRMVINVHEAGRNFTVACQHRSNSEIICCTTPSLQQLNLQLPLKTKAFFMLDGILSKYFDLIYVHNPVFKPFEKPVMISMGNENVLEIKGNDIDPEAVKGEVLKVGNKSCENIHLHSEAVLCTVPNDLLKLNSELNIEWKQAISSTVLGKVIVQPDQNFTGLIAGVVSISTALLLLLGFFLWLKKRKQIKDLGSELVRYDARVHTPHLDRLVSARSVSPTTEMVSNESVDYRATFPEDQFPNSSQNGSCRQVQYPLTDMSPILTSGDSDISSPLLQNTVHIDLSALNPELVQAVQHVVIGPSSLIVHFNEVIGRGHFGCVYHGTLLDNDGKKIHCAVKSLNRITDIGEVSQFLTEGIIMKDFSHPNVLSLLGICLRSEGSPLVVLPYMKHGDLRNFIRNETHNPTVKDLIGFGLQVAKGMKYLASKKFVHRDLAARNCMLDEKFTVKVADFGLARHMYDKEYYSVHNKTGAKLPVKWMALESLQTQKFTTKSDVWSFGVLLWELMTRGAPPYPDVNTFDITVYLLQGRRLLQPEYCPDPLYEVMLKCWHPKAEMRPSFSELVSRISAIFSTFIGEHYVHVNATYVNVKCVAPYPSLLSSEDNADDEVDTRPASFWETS
# Chain of off-target kinases (Homo sapiens, UniProt P07949, M918T) (P07949 29-1114 M918T): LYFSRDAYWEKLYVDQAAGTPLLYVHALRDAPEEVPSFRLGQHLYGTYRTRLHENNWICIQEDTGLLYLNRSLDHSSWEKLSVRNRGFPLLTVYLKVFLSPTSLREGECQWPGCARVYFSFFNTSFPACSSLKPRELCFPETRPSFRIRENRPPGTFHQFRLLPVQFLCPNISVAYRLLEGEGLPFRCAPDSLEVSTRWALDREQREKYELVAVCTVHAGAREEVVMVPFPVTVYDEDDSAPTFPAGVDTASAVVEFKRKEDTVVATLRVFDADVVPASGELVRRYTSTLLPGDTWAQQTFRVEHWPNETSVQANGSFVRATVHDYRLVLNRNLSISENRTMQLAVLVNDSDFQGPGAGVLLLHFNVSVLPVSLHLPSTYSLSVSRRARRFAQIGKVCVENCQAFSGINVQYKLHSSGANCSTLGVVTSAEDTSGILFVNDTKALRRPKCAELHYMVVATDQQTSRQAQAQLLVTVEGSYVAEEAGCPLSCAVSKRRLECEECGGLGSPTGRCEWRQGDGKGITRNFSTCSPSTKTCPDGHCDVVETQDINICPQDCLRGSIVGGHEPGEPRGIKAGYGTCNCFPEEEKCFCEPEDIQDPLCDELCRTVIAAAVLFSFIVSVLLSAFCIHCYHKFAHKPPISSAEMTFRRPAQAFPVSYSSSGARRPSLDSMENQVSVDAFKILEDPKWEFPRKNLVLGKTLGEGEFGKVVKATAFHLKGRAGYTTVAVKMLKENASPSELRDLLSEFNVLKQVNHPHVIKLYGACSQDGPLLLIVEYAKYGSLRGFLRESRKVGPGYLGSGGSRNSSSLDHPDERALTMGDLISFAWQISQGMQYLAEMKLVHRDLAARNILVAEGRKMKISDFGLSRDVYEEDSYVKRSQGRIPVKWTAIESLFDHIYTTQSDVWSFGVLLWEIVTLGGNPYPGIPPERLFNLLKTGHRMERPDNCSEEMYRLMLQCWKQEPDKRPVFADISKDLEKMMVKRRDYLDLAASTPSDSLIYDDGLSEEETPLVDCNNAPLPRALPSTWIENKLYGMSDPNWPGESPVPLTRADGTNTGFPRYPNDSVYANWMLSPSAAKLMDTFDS
# Chain of off-target kinases (Homo sapiens, UniProt P78362) (P78362 whole entry): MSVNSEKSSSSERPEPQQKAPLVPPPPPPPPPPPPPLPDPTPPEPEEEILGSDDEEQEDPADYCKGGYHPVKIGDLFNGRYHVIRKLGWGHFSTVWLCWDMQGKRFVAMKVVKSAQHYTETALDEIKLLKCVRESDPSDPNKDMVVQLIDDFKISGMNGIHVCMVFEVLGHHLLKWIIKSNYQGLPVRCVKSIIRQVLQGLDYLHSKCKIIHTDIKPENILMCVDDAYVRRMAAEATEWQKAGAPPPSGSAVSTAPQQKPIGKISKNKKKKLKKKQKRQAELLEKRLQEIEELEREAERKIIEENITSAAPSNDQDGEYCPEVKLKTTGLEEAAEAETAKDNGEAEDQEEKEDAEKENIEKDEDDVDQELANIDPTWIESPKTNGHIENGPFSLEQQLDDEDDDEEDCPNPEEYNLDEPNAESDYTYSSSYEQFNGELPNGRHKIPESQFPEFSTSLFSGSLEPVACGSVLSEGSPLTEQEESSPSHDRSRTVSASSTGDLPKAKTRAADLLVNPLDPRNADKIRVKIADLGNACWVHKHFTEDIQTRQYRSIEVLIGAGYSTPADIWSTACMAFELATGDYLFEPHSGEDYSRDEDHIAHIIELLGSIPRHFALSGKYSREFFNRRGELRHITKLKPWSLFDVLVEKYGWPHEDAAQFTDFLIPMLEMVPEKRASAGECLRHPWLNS
# Chain of off-target kinases (Homo sapiens, UniProt P19784) (P19784 whole entry): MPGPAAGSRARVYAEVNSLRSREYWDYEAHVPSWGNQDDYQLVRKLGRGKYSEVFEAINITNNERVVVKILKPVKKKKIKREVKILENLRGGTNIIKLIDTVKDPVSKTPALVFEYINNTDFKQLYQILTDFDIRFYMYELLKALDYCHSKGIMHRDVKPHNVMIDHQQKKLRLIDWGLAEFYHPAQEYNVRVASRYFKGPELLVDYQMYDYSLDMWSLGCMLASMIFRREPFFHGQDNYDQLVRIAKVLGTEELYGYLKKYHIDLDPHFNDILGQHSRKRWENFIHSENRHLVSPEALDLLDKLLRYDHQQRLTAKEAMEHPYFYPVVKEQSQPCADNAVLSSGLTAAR
# Chain of off-target kinases (Homo sapiens, UniProt Q7KZI7) (Q7KZI7 whole entry): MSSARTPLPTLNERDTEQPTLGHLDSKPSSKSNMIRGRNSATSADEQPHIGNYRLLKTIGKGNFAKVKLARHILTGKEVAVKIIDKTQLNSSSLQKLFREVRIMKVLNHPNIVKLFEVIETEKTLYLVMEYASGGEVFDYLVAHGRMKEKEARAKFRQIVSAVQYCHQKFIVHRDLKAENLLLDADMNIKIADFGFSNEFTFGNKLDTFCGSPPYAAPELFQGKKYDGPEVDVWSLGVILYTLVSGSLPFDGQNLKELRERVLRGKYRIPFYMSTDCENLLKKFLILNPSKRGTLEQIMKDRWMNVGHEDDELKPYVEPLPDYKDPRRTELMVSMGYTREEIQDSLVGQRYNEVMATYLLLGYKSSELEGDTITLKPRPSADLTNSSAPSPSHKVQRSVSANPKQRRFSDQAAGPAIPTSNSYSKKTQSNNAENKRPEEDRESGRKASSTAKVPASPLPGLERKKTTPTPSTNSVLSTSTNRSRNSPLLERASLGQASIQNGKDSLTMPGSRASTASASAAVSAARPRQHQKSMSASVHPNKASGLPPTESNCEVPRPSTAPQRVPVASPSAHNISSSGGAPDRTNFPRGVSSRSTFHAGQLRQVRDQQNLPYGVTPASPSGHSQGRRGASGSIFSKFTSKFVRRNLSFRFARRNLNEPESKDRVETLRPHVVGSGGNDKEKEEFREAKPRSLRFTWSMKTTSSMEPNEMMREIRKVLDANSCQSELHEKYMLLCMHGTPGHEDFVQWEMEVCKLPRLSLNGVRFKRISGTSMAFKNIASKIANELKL
smiles,measurement,setting,value
"N#Cc1cc(-c2ncnc(Nc3ccc(N4CCN(C5COC5)CC4)cc3)n2)ccc1OC1CCOCC1 [Compound 1, 5-(4-((4-(4-(oxetan-3-yl)piperazin-1-yl)phenyl)amino)-1,3,5-triazin-2-yl)-2-((tetrahydro-2H-pyran-4-yl)oxy)benzonitrile]",% Inhibition 1,off-target kinases [1],−2%
same,% Inhibition 2,off-target kinases [1],−4%
same,% Inhibition Avg,off-target kinases [1],−3%
same,inhibition,off-target kinases [2]; read-out: % Inhibition 1,86%
same,inhibition,off-target kinases [2]; read-out: % Inhibition 2,82%
same,inhibition,off-target kinases [2]; read-out: % Inhibition Avg,84%
same,inhibition,off-target kinases [3]; read-out: % Inhibition 1,83%
same,inhibition,off-target kinases [3]; read-out: % Inhibition 2,79%
same,inhibition,off-target kinases [3]; read-out: % Inhibition Avg,81%
same,inhibition,off-target kinases [4]; read-out: % Inhibition 1,5%
same,inhibition,off-target kinases [4]; read-out: % Inhibition 2,4%
same,inhibition,off-target kinases [4]; read-out: % Inhibition Avg,4%
same,inhibition,off-target kinases [5]; read-out: % Inhibition 1,10%
same,inhibition,off-target kinases [5]; read-out: % Inhibition 2,13%
same,inhibition,off-target kinases [5]; read-out: % Inhibition Avg,12%
same,% Inhibition 1,off-target kinases [6],−10%
same,% Inhibition 2,off-target kinases [6],−4%
same,% Inhibition Avg,off-target kinases [6],−7%
same,inhibition,off-target kinases [7]; read-out: % Inhibition 1,32%
same,inhibition,off-target kinases [7]; read-out: % Inhibition 2,30%
same,inhibition,off-target kinases [7]; read-out: % Inhibition Avg,31%
same,inhibition,off-target kinases [8]; read-out: % Inhibition 1,46%
same,inhibition,off-target kinases [8]; read-out: % Inhibition 2,48%
same,inhibition,off-target kinases [8]; read-out: % Inhibition Avg,47%
